The text below walks through data of patent US20100041590A1, “Compounds” (priority 2006, published 2010).

Where a name gives a salt, the structure may show the parent alone.

The target in this experiment is T1, SCD (SCD-containing rat microsomes) (Rattus norvegicus, UniProt P07308).
T1 construct: SCD-containing rat microsomes (2 μg protein); from tissue
T1 sequence (P07308 1-358): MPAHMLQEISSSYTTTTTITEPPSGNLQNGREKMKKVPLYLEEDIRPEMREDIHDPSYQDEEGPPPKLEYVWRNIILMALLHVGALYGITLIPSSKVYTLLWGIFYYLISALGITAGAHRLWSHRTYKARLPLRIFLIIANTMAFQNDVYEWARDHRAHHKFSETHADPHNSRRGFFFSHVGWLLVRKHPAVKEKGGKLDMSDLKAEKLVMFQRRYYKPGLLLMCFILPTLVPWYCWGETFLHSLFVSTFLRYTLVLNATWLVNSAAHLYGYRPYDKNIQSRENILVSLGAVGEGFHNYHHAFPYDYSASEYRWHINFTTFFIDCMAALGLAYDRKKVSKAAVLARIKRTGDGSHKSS
In words: in vitro assay for SCD activity based on production of [3H]H2O from [9,10-3H] stearoyl Coenzyme A. In kind it is biochemical. To be noted: SCD-containing rat microsomes (2 μg protein), substrate 1 μM, 6 min incubation, 5 min preincubation with compound; read-out: average pIC50 value, in vitro assay for SCD activity (converted). As for the experimental part:
The compounds of the present invention may be analysed in vitro for SCD activity using an assay based on the production of [^3H]H2O, which is released during the enzyme-catalyzed generation of the monounsaturated fatty acyl CoA product. The assay is performed in a 96-well filtration plates. The titrated substrate used in the assay is the [9,10-^3H] stearoyl Coenzyme A. After incubation for 6 minutes of SCD-containing rat microsomes (2 μg protein) and substrate (1 μM), the labelled fatty acid acyl-CoA species and microsomes are absorbed with charcoal and separated from [^3H]H2O by centrifugation. The formation of [^3H]H2O is used as a measure of SCD activity. Compounds at concentrations starting at 10 μM to 0.1 nM or vehicle (DMSO) are preincubated for 5 minutes with the microsomes before addition of the substrate. The concentration-responses are fitted with sigmoidal curves to obtain IC50 values.
For the compound `CCCc1cc(C(=O)Nc2ccc3c(c2)CCNC3)nn1Cc1cc(Cl)ccc1OCC(C)C` [1-({5-chloro-2-[(2-methylpropyl)oxy]phenyl}methyl)-5-propyl-N-(1,2,3,4-tetrahydro-6-isoquinolinyl)-1H-pyrazole-3-carboxamide hydrochloride], the IC50 is 3.16 to 10 µM.
On to `CC(C)COc1ccc(Cl)cc1Cn1nc(C(=O)Nc2ccc3c(c2)CCNC3)cc1C1CC1` [1-({5-chloro-2-[(2-methylpropyl)oxy]phenyl}methyl)-5-cyclopropyl-N-(1,2,3,4-tetrahydro-6-isoquinolinyl)-1H-pyrazole-3-carboxamide hydrochloride], for which the IC50 was over 10 µM.
The same measure for `CCc1cc(NC(=O)c2ccc3c(c2)CCNC3)nn1Cc1cc(Cl)ccc1OCC(C)C` [Example 1, N-[1-({5-chloro-2-[(2-methylpropyl)oxy]phenyl}methyl)-5-ethyl-1H-pyrazol-3-yl]-1,2,3,4-tetrahydro-6-isoquinolinecarboxamide hydrochloride]: under 3.16 µM.
The same measure for `CC(C)COc1ccc(Cl)cc1Cn1nc(NC(=O)c2ccc3c(c2)CCNC3)cc1C1CC1` [Example 2, N-[1-({5-chloro-2-[(2-methylpropyl)oxy]phenyl}methyl)-5-cyclopropyl-1H-pyrazol-3-yl]-1,2,3,4-tetrahydro-6-isoquinolinecarboxamide hydrochloride]: under 3.16 µM.
